Here are results for 23 molecules from patent US10961238B2, “Modulators of hedgehog (Hh) signaling pathway” (E-THERAPEUTICS PLC, priority 2016, dated 2021).

By IC50 is commonly meant the concentration needed to halve the response being measured.

The subject of one experiment is C3H10T1/2 cells. Briefly: C3H assay: differentiation of C3H10T1/2 cells by mSHH, measurement of alkaline phosphatase. The experiment is classed as cell-based, mouse. The settings on record: Mus musculus, C3H 10T1/2.
The target of another experiment is T1, SMO (Homo sapiens, UniProt Q99835).
T1 construct: expressed in transfected cells; host or cells: HEK293
T1 sequence (Q99835 28-787): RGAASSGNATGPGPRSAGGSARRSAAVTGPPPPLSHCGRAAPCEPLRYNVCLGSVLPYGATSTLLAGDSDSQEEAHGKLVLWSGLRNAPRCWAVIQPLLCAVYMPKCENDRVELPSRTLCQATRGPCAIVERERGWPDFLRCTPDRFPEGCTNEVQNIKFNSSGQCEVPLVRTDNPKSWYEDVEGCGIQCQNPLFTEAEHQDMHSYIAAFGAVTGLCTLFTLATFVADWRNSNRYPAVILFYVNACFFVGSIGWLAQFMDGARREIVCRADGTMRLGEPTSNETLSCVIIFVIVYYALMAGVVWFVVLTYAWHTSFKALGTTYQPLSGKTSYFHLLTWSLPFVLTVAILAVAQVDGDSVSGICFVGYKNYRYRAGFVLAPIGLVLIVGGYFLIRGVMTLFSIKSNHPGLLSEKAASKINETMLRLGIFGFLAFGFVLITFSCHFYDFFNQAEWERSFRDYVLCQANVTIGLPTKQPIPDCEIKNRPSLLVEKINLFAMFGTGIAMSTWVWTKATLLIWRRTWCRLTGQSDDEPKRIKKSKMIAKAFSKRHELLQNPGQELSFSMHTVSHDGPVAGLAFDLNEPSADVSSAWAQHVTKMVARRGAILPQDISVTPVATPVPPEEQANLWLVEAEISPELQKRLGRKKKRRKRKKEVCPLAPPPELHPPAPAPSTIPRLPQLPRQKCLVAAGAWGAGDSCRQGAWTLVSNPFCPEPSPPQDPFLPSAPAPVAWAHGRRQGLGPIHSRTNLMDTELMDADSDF
Briefly: Smoothened (SMO) binding fluorescence polarisation assay (BODIPY-cyclopamine competition). The settings on record: SMO binding FP assay versus C3H10T1/2 cellular assay. As to the method:
Standard Protocol for Smoothened (SMO) Binding Fluorescence Polarisation Assay.
The assay measures the ability of the test compounds to compete with a fluorescently-labelled version of the known ligand, cyclopamine, for binding to SMO. The fluorescent tag used is BODIPY (boron dipyrromethene).
An aliquot of a membrane preparation from a SMO-over-expressing HEK293 cell line is diluted to protein concentration of 0.117 mg/ml in assay buffer (25 mM HEPES, 2 mM EDTA, 0.05% γ-globulin, 0.01% pluronic acid pH7.4, plus protease Inhibitor cocktail). 8.5 μl of the membrane suspension is added to each well of a black, low volume 384 well microtitre plate.
Test compounds are added in a seven point dilution range to the wells containing the membrane preparation. The final DMSO solvent concentration in the wells is maintained at 0.3%. 6.5 μl of a 6.9 nM BODIPY-cyclopamine solution is added to each of the wells (final assay concentration 3 nM).
The plate is sealed and stored in the dark at room temperature for 24 hours prior to measurement of the fluorescence polarisation signal on a Perkin Elmer Envision multi-label reader.
Table 4 below details the ratio of SMO binding compared to the potency in the C3H10T1/2 cellular assay. The small ratio between SMO binding and potency for vismodegib is considered to be reflective of the fact vismodegib acts mainly through inhibition of the SMO protein. The larger ratios for the compound of the invention are considered to be reflective of alternate actions outside of direct SMO inhibition.
In general terms: In fluorescence polarisation assays a small probe gives low polarisation when free and higher when bound to something large.

Where [1] appears, read: C3H10T1/2 cells stimulated with mSHH for 72 hours, alkaline phosphatase activity, read-out: IC50 Ranges.

Where two headings read alike, the source gives them in different places. Bounds are passed on as bounds.

Take `COC(=O)c1cnc2[nH]cc(C3CCN(S(=O)(=O)C4CCN(C(=O)OC(C)(C)C)CC4)CC3)c2c1` [Compound 16, methyl 3-[1-[1-[(2-methylpropan-2-yl)oxycarbonyl]piperidin-4-yl]sulfonylpiper-idin-4-yl]-1H-pyrrolo[2,3-b]pyridine-5-carboxylate]: the IC50 in the experiment on C3H10T1/2 cells (setting [1]) was 100 to 1000 nM. For the same molecule, the “Ratio of potency in SMO binding assay to potency in C3H10T1/2 cellular assay” value (“Ratio of potency in SMO binding assay” for short) on SMO was >78.
As for `CC1(C)COCC(C)(C)N1C(=O)N1CC(S(=O)(=O)N2CCC(c3cnc4occc4c3)CC2)C1` [Compound 34, [3-(4-furo[2,3-b]pyridin-5-ylpiperidin-1-yl)sulfonylaze-tidin-1-yl]-(3,3,5,5-tetramethylmor-pholin-4-yl)methanone], the IC50 in the experiment with C3H10T1/2 cells (setting [1]) was in the range of 10 to 100 nM. For the same molecule, the “Ratio of potency in SMO binding assay” value at SMO was 21.
Take `O=C(OCC1CCCO1)N1CC(S(=O)(=O)N2CCC(c3c[nH]c4ncccc34)CC2)C1` (stereo not shown) [Compound 67, (oxolan-2-yl)methyl 3-[4-(1H-pyrrolo [2,3-b]pyridin-3-yl)piperidin-1-yl]sulfonylaze-tidine-1-carboxylate]: in the experiment on C3H10T1/2 cells (setting [1]), the IC50 was 10 to 100 nM. The “Ratio of potency in SMO binding assay” value at SMO was 45.
For `CC(C)OC(=O)N1CC(S(=O)(=O)N2CCC(c3c[nH]c4ncccc34)CC2)C1` [Compound 97, propan-2-yl 3-[4-(1H-pyrrolo[2,3-b]pyridin-3-yl)piperidin-1-yl]sulfonylaze-tidine-1-carboxylate], in the experiment on C3H10T1/2 cells (setting [1]), the IC50 fell in the range of 100 to 1000 nM. Also, the “Ratio of potency in SMO binding assay” value at SMO came out at 22.
On to `CN(C)c1ccc(C2CCN(S(=O)(=O)C3CCN(C(=O)OC(C)(C)C)CC3)CC2)cc1` [Compound 112], for which the IC50 in the experiment on C3H10T1/2 cells (setting [1]) fell in the range of 100 to 1000 nM. The “Ratio of potency in SMO binding assay” value on SMO is given as 42.
Regarding `COc1cnc2[nH]cc(C3CCN(S(=O)(=O)C4CCN(C(=O)OC(C)(C)C)CC4)CC3)c2c1` [Compound 115, tert-butyl 4-[4-(5-methoxy-1H-pyrrolo[2,3-b]pyridin-3-yl)piperidin-1-yl]sulfonylpiper-idine-1-carboxylate], the IC50 with C3H10T1/2 cells (setting [1]) was in the range of 100 to 1000 nM. Moreover, the “Ratio of potency in SMO binding assay” value on SMO was determined as 20.
As to `Cn1cc(-c2cnc3[nH]cc(C4CCN(S(=O)(=O)C5CN(C(=O)OC(C)(C)C)C5)CC4)c3c2)cn1` [Compound 122, tert-butyl 3-[4-[5-(1-methylpyrazol-4-yl)-1H-pyrrolo [2,3-b]pyridin-3-yl]piperidin-1-yl]sulfonylaze-tidine-1-carboxylate], the IC50 in the experiment with C3H10T1/2 cells (setting [1]) lay within 100 to 1000 nM. In addition, the “Ratio of potency in SMO binding assay” value on SMO is >55.
For the molecule `CC(C)(C)OC(=O)N1CC(S(=O)(=O)N2CCC(c3coc4cccnc34)CC2)C1` [Compound 131, tert-Butyl 3-[(4-furo[3,2-b]pyridin-3-yl-1-piperidyl)sulfonyl]azetidine-1-carboxylate], the IC50 with C3H10T1/2 cells (setting [1]) was in the range of 10 to 100 nM. For the same molecule, the “Ratio of potency in SMO binding assay” value at SMO was 84.
`C[C@@H]1CN(C(=O)N2CC(S(=O)(=O)N3CCC(c4ccc(Cl)cc4)CC3)C2)C[C@H](C)O1` [Compound 393, [3-[4-(4-chlorophenyl)piperidin-1-yl]sulfonylaze-tidin-1-yl]-[(2R,6S)-2,6-dimethylmorpholin-4-yl]methanone]: in the experiment with C3H10T1/2 cells (setting [1]), the IC50 was 10 to 100 nM.
As for `Cc1cc(F)ccc1NC(=O)N1CC(S(=O)(=O)N2CCC(c3c[nH]c4ncccc34)CC2)C1` [Compound 394, N-(4-fluoro-2-methylphenyl)-3-[4-(1H-pyrrolo[2,3-b]pyridin-3-yl)piperidin-1-yl]sulfonylazet idine-1-carboxamide], the IC50 in the experiment on C3H10T1/2 cells (setting [1]) was in the range of 10 to 100 nM.
Take `CC(C)(O)CC(=O)N1CC(S(=O)(=O)N2CCC(c3coc4cccnc34)CC2)C1` [Compound 398, 1-[3-(4-furo[3,2-b]pyridin-3-ylpiperidin-1-yl)sulfonylaze-tidin-1-yl]-3-hydroxy-3-methylbutan-1-one]: the IC50 in the experiment on C3H10T1/2 cells (setting [1]) lay in the range of 100 to 1000 nM.
In the case of `Cc1cc(F)ccc1N(C)C(=O)N1CC(S(=O)(=O)N2CCC(c3coc4cccnc34)CC2)C1` [Compound 399, N-(4-fluoro-2-methyl-phenyl)-3-[(4-furo[3,2-b]pyridin-3-yl-1-piperidyl)sulfonyl]-N-methyl-azetidine-1-carboxamide], the IC50 with C3H10T1/2 cells (setting [1]) lay within 100 to 1000 nM.
Still for that read-out and setting: under `Cc1ccc(F)cc1NC(=O)N1CC(S(=O)(=O)N2CCC(c3ccc(Cl)cc3)CC2)C1` [Compound 400, 3-[4-(4-chlorophenyl)piperidin-1-yl]sulfonyl-N-(5-fluoro-2-methylphenyl) azetidine-1-carboxamide] stands 100 to 1000 nM.
On to `O=C(N1CCOCC1)N1CC(S(=O)(=O)N2CCC(c3ccc(Cl)cc3)CC2)C1` [Compound 402, [3-[4-(4-chlorophenyl)piperidin-1-yl]sulfonylaze-tidin-1-yl]-morpholin-4-ylmethanone], for which, in the experiment on C3H10T1/2 cells (setting [1]), the IC50 lay within 100 to 1000 nM.
On to `O=C(Nc1c(F)cccc1F)N1CC(S(=O)(=O)N2CCC(c3coc4cccnc34)CC2)C1` [Compound 403, N-(2,6-difluorophenyl)-3-(4-furo[3,2-b]pyridin-3-ylpiperidin-1-yl)sulfonylaze-tidine-1-carboxamide], for which the IC50 in the experiment on C3H10T1/2 cells (setting [1]) fell in the range of 10 to 100 nM.
As to `CC(C)(C(=O)N1CC(S(=O)(=O)N2CCC(c3coc4cccnc34)CC2)C1)C(F)(F)F` [Compound 404, 3,3,3-trifluoro-1-[3-(4-furo[3,2-b]pyridin-3-ylpiperidin-1-yl)sulfonylaze-tidin-1-yl]-2,2-dimethylpropan-1-one], the IC50 in the experiment with C3H10T1/2 cells (setting [1]) lay in the range of 10 to 100 nM.
On to `C[C@](O)(CC(=O)N1CC(S(=O)(=O)N2CCC(c3c[nH]c4ncccc34)CC2)C1)C(F)(F)F` [Compound 405, 4,4,4-trifluoro-3-hydroxy-3-methyl-1-[3-[4-(1H-pyrrolo[2,3-b]pyridin-3-yl)piperidin-1-yl]sulfonylaze-tidin-1-yl]butan-1-one], for which, in the experiment with C3H10T1/2 cells (setting [1]), the IC50 lay in the range of 10 to 100 nM.
With `C[C@](O)(CC(=O)N1CC(S(=O)(=O)N2CCC(c3coc4cccnc34)CC2)C1)C(F)(F)F` [Compound 406, 4,4,4-trifluoro-1-[3-(4-furo[3,2-b]pyridin-3-ylpiperidin-1-yl)sulfonylaze-tidin-1-yl]-3-hydroxy-3-methylbutan-1-one], in the experiment with C3H10T1/2 cells (setting [1]), the IC50 fell in the range of 10 to 100 nM.
Regarding `CN1CCC[C@H]1C(=O)N1CC(S(=O)(=O)N2CCC(c3coc4cccnc34)CC2)C1` [Compound 407, [3-(4-furo[3,2-b]pyridin-3-ylpiperidin-1-yl)sulfonylazetidin-1-yl]-[(2S)-methylpyrroli-din-2-yl]methanone], the IC50 in the experiment on C3H10T1/2 cells (setting [1]) is 100 to 1000 nM.
On to `CC(C)CC(=O)N1CC(S(=O)(=O)N2CCC(c3coc4cccnc34)CC2)C1` [Compound 408, 1-[3-(4-furo[3,2-b]pyridin-3-ylpiperidin-1-yl)sulfonylazetidin-1-yl]-3-methylbutan-1-one], for which, in the experiment with C3H10T1/2 cells (setting [1]), the IC50 lay within 100 to 1000 nM.
Consider `Cc1ccccc1C1CCN(S(=O)(=O)C2CN(C(=O)OC(C)(C)C)C2)CC1` [Compound 409, tert-butyl 3-[4-(2-methylphenyl)piperidin-1-yl]sulfonylaze-tidine-1-carboxylate], for which, in the experiment on C3H10T1/2 cells (setting [1]), the IC50 is 1000 to 10000 nM.
On to `CC1(C)COCN1C(=O)N1CC(S(=O)(=O)N2CCC(c3ccc(Cl)cc3)CC2)C1` [Compound 411, [3-[4-(4-chlorophenyl)piperidin-1-yl]-sulfonylaze-tidin-1-yl]-(4,4-dimethyl-1,3-oxazolidin-3-yl)-methanone], for which, in the experiment with C3H10T1/2 cells (setting [1]), the half-inhibitory concentration (IC50) is 10 to 100 nM.
As to `Cc1c(C(=O)Nc2ccc(N3C[C@@H](C)O[C@@H](C)C3)nc2)cccc1-c1ccc(OC(F)(F)F)cc1` [Sonidegib, reference compound], in the experiment on C3H10T1/2 cells (reference compounds run in the C3H assay, read-out: mean IC50), the IC50 was 11 nM.
